Measured values taken from patent US7138361B2, “Herbicidal heterocycles” (E. I. du Pont de Nemours and Company, priority 2000, dated 2006).

Legend:
Type in all cases: in vivo
[1] = test system: morningglory (Ipomoea hederacea); test: Test C postemergence
Excerpt: Seeds of plant species selected from bermudagrass (Cynodon dactylon), Surinam grass (Brachiaria decumbens), cocklebur (Xanthium strumarium), corn (Zea mays), crabgrass (Digitaria sanguinalis), woolly cupgrass (Eriochloa villosa), giant foxtail (Setaria faberii), goosegrass (Eleusine indica), johnsongrass (Sorghum halepense), kochia (Kochia scoparia), lambsquarters (Chenopodium album), morningglory (Ipomoea hederacea), yellow nutsedge (Cyperus esculentus), pigweed (Amaranthus retroflexus), common ragweed (Ambrosia elatior), soybean (Glycine max) and velvetleaf (Abutilon theophrasti) were planted and treated preemergence with test chemicals formulated in a non-phytotoxic solvent mixture which included a surfactant.
At the same time, plants selected from these crop and weed species and also winter barley (Hordeum vulgare), blackgrass (Alopecurus myosuroides), canary grass (Phalaris minor), chickweed (Stellaria media), downy brome (Bromus tectorum), green foxtail (Setaria viridis), Italian ryegrass (Lolium multiflorum), wheat (Triticum aestivum), wild oat (Avena fatua) and windgrass (Apera spica-venti) were treated with postemergence applications of some of the test chemicals formulated in the same manner. Plants ranged in height from 2 to 18 cm (1- to 4-leaf stage) for postemergence treatments. Plant species in the flooded paddy test consisted of rice (Oryza saliva), smallflower flatsedge (Cyperus difformis), duck salad (Heteranthera limosa) and barnyardgrass (Echinochloa crus-galli) grown to the 2-leaf stage for testing. Treated plants and controls were maintained in a greenhouse for 12 to 14 days, after which time all species were compared to controls and visually evaluated. Plant response ratings, summarized in Table C, are based on a scale of 0 to 100 where 0 is no effect and 100 is complete control. A dash (-) response means no test result.

Sunflower = test: Test C preemergence; details: Rate 62 g/ha, scale 0 to 100
[2] = test system: lambsquarters (Chenopodium album); test: Test B postemergence; details: 13 to 15 days
Procedure, shortened: (§1)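 Seeds were planted and sprayed preemergence with test chemical in a non-phytotoxic solvent mixture containing surfactant; postemergence plants (2 to 18 cm, 1- to 4-leaf stage) received the same formulation. Greenhouse hold 13 to 15 days, then visual rating versus untreated controls on a 0–100 scale (0 no effect, 100 complete control).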

[3] = test system: blackgrass (Alopecurus myosuroides); test: Test B postemergence; details: 13 to 15 days
Procedure, shortened: as §1

[4] = test system: barnyardgrass (Echinochloa crus-galli); test: Test C flooded paddy test; details: for Barnyardgrass plant response rating: Flooded Paddy, scale 0 to 100, 0 no effect, 100 complete control; for Plant response rating, Barnyardgrass / Plant response rating (scale 0 to 100), Barnyardgrass: flooded paddy test; for Plant response rating, Barnyardgrass: scale 0 to 100 (0 no effect, 100 complete control)
Procedure, shortened: (§2)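 Rice and three paddy weeds were grown to the 2-leaf stage under flooded conditions, then treated and kept in a greenhouse for 12–14 days. Response was rated visually against untreated controls on a 0–100 scale, where 100 is complete control.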

rice (Oryza saliva) = test: Test C flooded paddy test; details: for Rice plant response rating: Flooded Paddy, scale 0 to 100, 0 no effect, 100 complete control; for Plant response rating, Rice / Plant response rating (scale 0 to 100), Rice: flooded paddy test; for Plant response rating, Rice: scale 0 to 100 (0 no effect, 100 complete control)
Procedure, shortened: as §2

[5] = test system: smallflower flatsedge (Cyperus difformis); test: Test C flooded paddy test; details: for Flatsedge plant response rating: Flooded Paddy, scale 0 to 100, 0 no effect, 100 complete control; for Plant response rating, Flatsedge / Plant response rating (scale 0 to 100), Flatsedge: flooded paddy test; for Plant response rating, Flatsedge: scale 0 to 100 (0 no effect, 100 complete control)
Procedure, shortened: as §2

[6] = test system: duck salad (Heteranthera limosa); test: Test C flooded paddy test; details: for Ducksalad plant response rating: Flooded Paddy, scale 0 to 100, 0 no effect, 100 complete control; for Plant response rating, Ducksalad / Plant response rating (scale 0 to 100), Ducksalad: flooded paddy test; for Plant response rating, Ducksalad: scale 0 to 100 (0 no effect, 100 complete control)
Procedure, shortened: as §2

[7] = Rate 125 g/ha, scale 0 to 100, 0 no effect, 100 complete control
[8] = Rate 250 g/ha, scale 0 to 100 (0 no effect, 100 complete control)
[9] = Rate 500 g/ha, scale 0 to 100 (0 no effect, 100 complete control)
[10] = Rate 125 g/ha, scale 0 (no effect) to 100 (complete control)
[11] = Rate 500 g/ha, scale 0 to 100, 0 is no effect, 100 is complete control
[12] = Rate 16 g/ha, visually evaluated after 12 to 14 days, 0 = no effect, 100 = complete control
[13] = under head Rate 16 g/ha, (own rate not given), after 12 to 14 days

In the case of COc1cc(N2CCC(n3ccc(C(C)C)n3)C2=O)ccc1C (stereo not drawn) [Compound 85], the “Plant response rating, Morningglory” value ([1]; Rate 62 g/ha, scale 0 to 100) is reported as 60, the “Plant response rating, Morningglory” value [1, 7] is reported as 80 and the “Plant response rating, Morningglory” value [1, 8] is reported as 80. For the same compound, the “Plant response rating, Morningglory” value [1, 9] was 90, the “Plant response rating, Sunflower” value (Sunflower) was 40 and the “Plant response rating, Lambsquarters” value [2, 10] was 30. For the same compound, the “Plant response rating, Lambsquarters” value [2, 11] was 90, the “Plant response rating, Blackgrass” value [3, 10] was 0 and the “Plant response rating, Blackgrass” value [3, 11] was 20. The “Barnyardgrass plant response rating” value ([4]; Rate 250 g/ha) was 100, the “Barnyardgrass plant response rating” value ([4]; Rate 500 g/ha) was 100 and the “Plant response rating, Barnyardgrass” value ([4]; Rate 62 g/ha) was 40. For the same compound, the “Plant response rating, Barnyardgrass” value ([4]; Rate 125 g/ha) was 90, the “Rice plant response rating” value (rice (Oryza saliva); Rate 250 g/ha) was 80 and the “Rice plant response rating” value (rice (Oryza saliva); Rate 500 g/ha) was 100. The “Plant response rating, Rice” value (rice (Oryza saliva); Rate 62 g/ha) was 30, the “Plant response rating, Rice” value (rice (Oryza saliva); Rate 125 g/ha) was 60 and the “Flatsedge plant response rating” value ([5]; Rate 250 g/ha) was 100. The “Flatsedge plant response rating” value ([5]; Rate 500 g/ha) was 100, the “Plant response rating, Flatsedge” value ([5]; Rate 62 g/ha) was 90 and the “Plant response rating, Flatsedge” value ([5]; Rate 125 g/ha) was 100. For the same compound, the “Ducksalad plant response rating” value ([6]; Rate 250 g/ha) was 100, the “Ducksalad plant response rating” value ([6]; Rate 500 g/ha) was 100 and the “Plant response rating, Ducksalad” value ([6]; Rate 62 g/ha) was 90. The “Plant response rating, Ducksalad” value ([6]; Rate 125 g/ha) was 100.

For CCCC(C)c1ccn(C2OCN(c3cccc(OC(F)(F)F)c3)C2=O)n1 (stereo not drawn) [Compound 91], the “Plant response rating, Morningglory” value ([1]; Rate 62 g/ha, scale 0 to 100) was 0, the “Plant response rating, Morningglory” value [1, 7] was 0 and the “Plant response rating, Morningglory” value [1, 8] was 60. For the same compound, the “Plant response rating, Morningglory” value [1, 9] was 90, the “Plant response rating, Sunflower” value (Sunflower) was 0 and the “Plant response rating, Lambsquarters” value [2, 11] was 100. The “Plant response rating, Blackgrass” value [3, 10] was 0, the “Plant response rating, Blackgrass” value [3, 11] was 0 and the “Barnyardgrass plant response rating” value ([4]; Rate 250 g/ha) was 100. The “Barnyardgrass plant response rating” value ([4]; Rate 500 g/ha) was 100, the “Plant response rating, Barnyardgrass” value ([4]; Rate 62 g/ha) was 0 and the “Plant response rating, Barnyardgrass” value ([4]; Rate 125 g/ha) was 50. For the same compound, the “Plant response rating (scale 0 to 100), Barnyardgrass” value [4, 12] was 0, the “Plant response rating (scale 0 to 100), Barnyardgrass” value [4, 13] was 0 and the “Rice plant response rating” value (rice (Oryza saliva); Rate 250 g/ha) was 20. For the same compound, the “Rice plant response rating” value (rice (Oryza saliva); Rate 500 g/ha) was 40, the “Plant response rating, Rice” value (rice (Oryza saliva); Rate 62 g/ha) was 0 and the “Plant response rating, Rice” value (rice (Oryza saliva); Rate 125 g/ha) was 20. The “Plant response rating (scale 0 to 100), Rice” value (rice (Oryza saliva); [12]) was 0, the “Plant response rating (scale 0 to 100), Rice” value (rice (Oryza saliva); [13]) was 0 and the “Flatsedge plant response rating” value ([5]; Rate 250 g/ha) was 100. The “Flatsedge plant response rating” value ([5]; Rate 500 g/ha) was 100, the “Plant response rating, Flatsedge” value ([5]; Rate 62 g/ha) was 0 and the “Plant response rating, Flatsedge” value ([5]; Rate 125 g/ha) was 70. For the same compound, the “Plant response rating (scale 0 to 100), Flatsedge” value [5, 12] was 0, the “Plant response rating (scale 0 to 100), Flatsedge” value [5, 13] was 0 and the “Ducksalad plant response rating” value ([6]; Rate 250 g/ha) was 90. For the same compound, the “Ducksalad plant response rating” value ([6]; Rate 500 g/ha) was 70, the “Plant response rating, Ducksalad” value ([6]; Rate 62 g/ha) was 80 and the “Plant response rating, Ducksalad” value ([6]; Rate 125 g/ha) was 0. For the same compound, the “Plant response rating (scale 0 to 100), Ducksalad” value [6, 12] was 0 and the “Plant response rating (scale 0 to 100), Ducksalad” value [6, 13] was 0.
